Source: ChEMBL document CHEMBL1156374, “Pestalone, a new antibiotic produced by a marine fungus in response to bacterial challenge” (2001)
Converted amounts (≈) assume the structure as drawn.

Key:
Format in all cases: functional
[1] = system: Staphylococcus aureus; experiment: Antibacterial activity against methicillin-resistant Staphylococcus aureus
[2] = system: Enterococcus faecium; experiment: Antibacterial activity against vancomycin-resistant Enterococcus faecium
[3] = Cytotoxicity against human NCI60 cells

For `COc1c(Cl)c(C)c(Cl)c(O)c1C(=O)c1c(C=O)c(O)cc(O)c1CC=C(C)C` [PESTALONE], which MIC [1] is on record?
Its MIC is 0.037 µg/mL (≈ 0.0842 µM).

What about the MIC [2] of the same compound?
Its MIC is 0.078 µg/mL (≈ 0.178 µM).

What about the GI50 [3] of the same compound?
Its GI50 is 6 µM.
